Numbered stars: 1 amine (or outer) side, 2 acyl side, 3 side chain; on linkers, the order of the positions; unused ones are H or OH. Bridge positions count the residues as written; N and C are the ends. Square brackets hold non-standard residues; d marks the D form. Peptide text beside a SMILES is read from it. * marks the point of attachment. hPhe(3,5-F2-4-CF3) = N[C@@H](CCc1cc(F)c(C(F)(F)F)c(F)c1)C(=O)O; hPhe(3-Cl-4-CF3) = N[C@@H](CCc1ccc(C(F)(F)F)c(Cl)c1)C(=O)O; hPhe(3-F,4-CF3) = N[C@@H](CCc1ccc(C(F)(F)F)c(F)c1)C(=O)O; NMePhe(4-CF3) = CN[C@@H](Cc1ccc(C(F)(F)F)cc1)C(=O)O; hPhe(4-CF3) = N[C@@H](CCc1ccc(C(F)(F)F)cc1)C(=O)O; NEtPhe(4-Me) = CCN[C@@H](Cc1ccc(C)cc1)C(=O)O; NMePhe(4-Cl) = CN[C@@H](Cc1ccc(Cl)cc1)C(=O)O; NMePhe(4-Me) = CN[C@@H](Cc1ccc(C)cc1)C(=O)O; hPhe(4-Cl) = N[C@@H](CCc1ccc(Cl)cc1)C(=O)O; NMedβ3hAla = C[C@H](CC(=O)[*:2])N(C)[*:1]; NMeNva(5,5-F2) = CN[C@@H](CCC(F)F)C(=O)O; NMeGly(cPent) = CN[C@H](C(=O)O)C1CCCC1; Pro(4,4-F2) = O=C(O)[C@@H]1CC(F)(F)CN1; dβ3hPip = O=C(C[C@H]1CCCCN1[*:1])[*:2]; NMeCha = CN[C@@H](CC1CCCCC1)C(=O)O; Hyp = O=C(O)[C@@H]1C[C@@H](O)CN1; NEtLeu = CCN[C@@H](CC(C)C)C(=O)O; NMeChg = CN[C@H](C(=O)O)C1CCCCC1; NMeF = CN[C@@H](Cc1ccccc1)C(=O)O; NMeT = CN[C@H](C(=O)O)[C@@H](C)O; Gly(cPr) = N[C@H](C(=O)O)C1CC1; NMeD = CN[C@@H](CC(=O)O)C(=O)O; NMeL = CN[C@@H](CC(C)C)C(=O)O; NMePra = C#CC[C@H](NC)C(=O)O; NMeV = CN[C@H](C(=O)O)C(C)C; d(β3hA) = C[C@@H](N)CC(=O)O; NMeA = CN[C@@H](C)C(=O)O; Piperidide = C1CCN(*)CC1; Ac5c = NC1(C(=O)O)CCCC1; Aze = O=C(O)[C@@H]1CCN1; Ac4c = NC1(C(=O)O)CCC1; Sar = CNCC(=O)O
molecular target: protein-protein interaction between Kras and SOS1 (biotin-tagged human Kras loaded with GDP, His-tagged human SOS1) (Homo sapiens (Human), UniProt P01116, G12D); assay: Protein-protein interaction inhibition between Kras and SOS1 (KrasG12D-SOS PPI) using AlphaScreen; type: biochemical; conditions: AlphaScreen; biotin-tagged human Kras loaded with GDP, His-tagged human SOS1; read-out: KRAS G12D-SOS PPI IC50;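 further: kras produced in E. coli, Ni-coupled donor beads and streptavidin acceptor beads, excitation 680 nm with emission detected at 520–620 nm via singlet oxygen transfer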

Compound	IC50
CC[C@H](C)[C@@H]1NC(=O)[C@H](CC(C)C)N(C)C(=O)C[C@@H](C(=O)N2CCCCC2)N(C)C(=O)[C@H](C(C)C)N(C)C(=O)C2(CCCC2)NC(=O)[C@@H]2CCCN2C(=O)[C@H](CCc2ccc(C(F)(F)F)c(Cl)c2)NC(=O)CN(C)C(=O)[C@H](CC2CCCCC2)N(C)C(=O)[C@@H]2CCN2C(=O)[C@H](C)N(C)C1=O [Compound 476] ([NMeL]I[NMeA][Aze][NMeCha][Sar][hPhe(3-Cl-4-CF3)]P[Ac5c][NMeV][NMeD]-Piperidide; lactam N-11)	4.1 nM
CCO[C@@H]1C[C@H]2C(=O)NC3(CCCC3)C(=O)N(C)[C@@H](C3CCCCC3)C(=O)N(C)[C@H](C)CC(=O)N(C)[C@@H](CC(C)C)C(=O)N[C@@H]([C@@H](C)CC)C(=O)N(C)[C@@H](C)C(=O)N3CC[C@H]3C(=O)N(C)[C@@H](Cc3ccc(C(F)(F)F)cc3)C(=O)N(C)CC(=O)N[C@@H](CCc3cc(F)c(C(F)(F)F)c(F)c3)C(=O)N2C1 [Compound 486] (cyclo([Ac5c][NMeChg][NMedβ3hAla][NMeL]I[NMeA][Aze][NMePhe(4-CF3)][Sar][hPhe(3,5-F2-4-CF3)][Hyp](Et)))	4.8 nM
CC[C@H](C)[C@@H]1NC(=O)[C@H](CC(C)C)N(C)C(=O)C[C@@H](C)NC(=O)[C@H](C(C)C)N(C)C(=O)C2(CCCC2)NC(=O)[C@@H]2CCCN2C(=O)[C@H](CCc2ccc(C(F)(F)F)c(Cl)c2)NC(=O)CN(C)C(=O)[C@H](CC2CCCCC2)N(C)C(=O)[C@@H]2CCN2C(=O)[C@H](C)N(C)C1=O [Compound 488, (5S,8S,11S,15R,18S,23aS,29S,35S,37aS)-8-((S)-sec-butyl)-29-(3-chloro-4-(trifluoromethyl)phenethyl)-35-(cyclohexylmethyl)-11-isobutyl-18-isopropyl-5,6,12,15,19,33,36-heptamethyldocosahydro-2H,4H-spiro[azeto[2,1-u]pyrrolo[2,1-i][1,4,7,10,13,16,19,22,25,28,31]undecaazacyclotetratriacontine-21,1′-cyclopentan]-4,7,10,13,17,20,23,28,31,34,37(14H,22H)-undecaone] (cyclo([Ac5c][NMeV][d(β3hA)][NMeL]I[NMeA][Aze][NMeCha][Sar][hPhe(3-Cl-4-CF3)]P))	29 nM
CC(C)C[C@H]1C(=O)N[C@@H](C2CC2)C(=O)N(C)[C@@H](C)C(=O)N2CC[C@H]2C(=O)N(C)[C@@H](CC2CCCCC2)C(=O)N(C)CC(=O)N[C@@H](CCc2ccc(C(F)(F)F)c(Cl)c2)C(=O)N2CCC[C@H]2C(=O)NC2(CCCC2)C(=O)N(C)[C@@H](C(C)C)C(=O)N[C@H](C)CC(=O)N1C [Compound 490] (cyclo([Ac5c][NMeV][d(β3hA)][NMeL][Gly(cPr)][NMeA][Aze][NMeCha][Sar][hPhe(3-Cl-4-CF3)]P))	240 nM
CC[C@H](C)[C@@H]1NC(=O)[C@H](CC(C)C)N(C)C(=O)C[C@@H](C)N(C)C(=O)[C@H](C2CCCC2)N(C)C(=O)C2(CCCC2)NC(=O)[C@@H]2CCCN2C(=O)[C@H](CCc2ccc(C(F)(F)F)c(Cl)c2)NC(=O)CN(C)C(=O)[C@H](Cc2ccc(C)cc2)N(CC)C(=O)[C@@H]2CCN2C(=O)[C@H](C)N(C)C1=O [Compound 494] (cyclo([Ac5c][NMeGly(cPent)][NMedβ3hAla][NMeL]I[NMeA][Aze][NEtPhe(4-Me)][Sar][hPhe(3-Cl-4-CF3)]P))	8.6 nM
CC[C@H](C)[C@@H]1NC(=O)[C@H](CC(C)C)N(C)C(=O)C[C@@H](C(=O)N2CCCCC2)N(C)C(=O)[C@H](C(C)C)N(C)C(=O)C2(CCCC2)NC(=O)[C@@H]2CCCN2C(=O)[C@H](CCc2ccc(C(F)(F)F)c(Cl)c2)NC(=O)CN(C)C(=O)[C@H](CC2CCCCC2)N(C)C(=O)[C@@H]2CCN2C(=O)[C@H]([C@@H](C)O)N(C)C1=O [Compound 496] ([NMeL]I[NMeT][Aze][NMeCha][Sar][hPhe(3-Cl-4-CF3)]P[Ac5c][NMeV][NMeD]-Piperidide; lactam N-11)	10 nM
CO[C@H](C)[C@@H]1NC(=O)[C@H](CC(C)C)N(C)C(=O)C[C@@H](C(=O)N2CCCCC2)N(C)C(=O)[C@H](C(C)C)N(C)C(=O)C2(CCCC2)NC(=O)[C@@H]2CCCN2C(=O)[C@H](CCc2ccc(C(F)(F)F)c(Cl)c2)NC(=O)CN(C)C(=O)[C@H](CC2CCCCC2)N(C)C(=O)[C@@H]2CCN2C(=O)[C@H](C)N(C)C1=O [Compound 497] ([NMeL]T(Me)[NMeA][Aze][NMeCha][Sar][hPhe(3-Cl-4-CF3)]P[Ac5c][NMeV][NMeD]-Piperidide; lactam N-11)	4.3 nM
CC[C@H](C)[C@@H]1NC(=O)[C@H](CC(C)C)N(C)C(=O)C[C@@H](C)N(C)C(=O)[C@H](C2CCCCC2)N(C)C(=O)C2(CCC2)NC(=O)[C@@H]2CC(F)(F)CN2C(=O)[C@H](CCc2ccc(C(F)(F)F)c(Cl)c2)NC(=O)CN(C)C(=O)[C@H](Cc2ccc(C(F)(F)F)cc2)N(C)C(=O)[C@@H]2CCN2C(=O)[C@H](C)N(C)C1=O [Compound 505] (cyclo([Ac4c][NMeChg][NMedβ3hAla][NMeL]I[NMeA][Aze][NMePhe(4-CF3)][Sar][hPhe(3-Cl-4-CF3)][Pro(4,4-F2)]))	86 nM
CCO[C@@H]1C[C@H]2C(=O)NC3(CCCC3)C(=O)N(C)[C@@H](C3CCCC3)C(=O)N(C)[C@H](C)CC(=O)N(C)[C@@H](CC(C)C)C(=O)N[C@@H]([C@@H](C)CC)C(=O)N(C)CC(=O)N(C)CC(=O)N(C)[C@@H](CC3CCCCC3)C(=O)N(C)CC(=O)N[C@@H](CCc3ccc(C(F)(F)F)c(Cl)c3)C(=O)N2C1 [Compound 510] (cyclo([Ac5c][NMeGly(cPent)][NMedβ3hAla][NMeL]I[Sar][Sar][NMeCha][Sar][hPhe(3-Cl-4-CF3)][Hyp](Et)))	4 nM
CC[C@H](C)[C@@H]1NC(=O)[C@H](C)N(C)C(=O)C[C@H]2CCCCN2C(=O)[C@H](C(C)C)N(C)C(=O)[C@H](Cc2ccccc2)N(C)C(=O)[C@H](CC(C)C)N(C)C(=O)[C@H](CCc2ccc(C(F)(F)F)cc2)NC(=O)CN(C)C(=O)[C@H](Cc2ccc(Cl)cc2)N(C)C(=O)CN(C)C(=O)CN(C)C1=O [Compound 512] (cyclo(I[Sar][Sar][NMePhe(4-Cl)][Sar][hPhe(4-CF3)][NMeL][NMeF][NMeV][dβ3hPip][NMeA]))	150 nM
CC[C@H](C)[C@@H]1NC(=O)[C@H](CC(C)C)N(C)C(=O)C[C@@H](C(=O)N2CCCCC2)N(C)C(=O)[C@H](C2CCCCC2)N(C)C(=O)C2(CCCC2)NC(=O)[C@H](CCC(F)F)N(C)C(=O)[C@H](CCc2ccc(C(F)(F)F)c(Cl)c2)NC(=O)CN(C)C(=O)[C@H](CC2CCCCC2)N(C)C(=O)CN(C)C(=O)CN(C)C1=O [Compound 523] ([NMeL]I[Sar][Sar][NMeCha][Sar][hPhe(3-Cl-4-CF3)][NMeNva(5,5-F2)][Ac5c][NMeChg][NMeD]-Piperidide; lactam N-11)	5.8 nM
CC[C@H](C)[C@@H]1NC(=O)[C@H](CC(C)C)N(C)C(=O)C[C@@H](C(=O)N2CCCCC2)N(C)C(=O)[C@H](C(C)C)N(C)C(=O)C2(CCCC2)NC(=O)[C@@H]2CCCN2C(=O)[C@H](CCc2ccc(Cl)cc2)NC(=O)CN(C)C(=O)[C@H](CC2CCCCC2)N(C)C(=O)CN(C)C(=O)[C@@H]2CCCN2C1=O [Compound 530] ([NMeL]IP[Sar][NMeCha][Sar][hPhe(4-Cl)]P[Ac5c][NMeV][NMeD]-Piperidide; lactam N-11)	140 nM
CC[C@H](C)[C@@H]1NC(=O)[C@H](CC(C)C)N(CC)C(=O)C[C@@H](C)NC(=O)[C@H](C2CCCC2)N(C)C(=O)C2(CCCC2)NC(=O)[C@@H]2CCCN2C(=O)[C@H](CCc2ccc(C(F)(F)F)c(Cl)c2)NC(=O)CN(C)C(=O)[C@H](Cc2ccc(C)cc2)N(C)C(=O)[C@@H]2CCN2C(=O)[C@H](C)N(C)C1=O [Compound 531] (cyclo([Ac5c][NMeGly(cPent)][d(β3hA)][NEtLeu]I[NMeA][Aze][NMePhe(4-Me)][Sar][hPhe(3-Cl-4-CF3)]P))	1.6 nM
CCO[C@@H]1C[C@H]2C(=O)NC3(CCCC3)C(=O)N(C)[C@@H](C3CCCC3)C(=O)N(C)[C@H](C)CC(=O)N(C)[C@@H](CC(C)C)C(=O)N[C@@H]([C@@H](C)CC)C(=O)N(C)CC(=O)N(C)CC(=O)N(C)[C@@H](Cc3ccc(C(F)(F)F)cc3)C(=O)N(C)CC(=O)N[C@@H](CCc3ccc(C(F)(F)F)c(Cl)c3)C(=O)N2C1 [Compound 541] (cyclo([Ac5c][NMeGly(cPent)][NMedβ3hAla][NMeL]I[Sar][Sar][NMePhe(4-CF3)][Sar][hPhe(3-Cl-4-CF3)][Hyp](Et)))	4.3 nM
CC[C@H](C)[C@@H]1NC(=O)[C@H](C)N(C)C(=O)C[C@@H](C)NC(=O)[C@H](CC(C)C)N(C)C(=O)[C@H](Cc2ccccc2)N(C)C(=O)[C@H](CC(C)C)N(C)C(=O)[C@H](CCc2ccc(C(F)(F)F)cc2)NC(=O)CN(C)C(=O)[C@H](Cc2ccc(Cl)cc2)N(C)C(=O)CN(C)C(=O)CN(C)C1=O [Compound 546] (cyclo(I[Sar][Sar][NMePhe(4-Cl)][Sar][hPhe(4-CF3)][NMeL][NMeF][NMeL][d(β3hA)][NMeA]))	130 nM
C#CC[C@H]1C(=O)N[C@@H]([C@@H](C)CC)C(=O)N(C)[C@@H](C)C(=O)N2CC[C@H]2C(=O)N(C)[C@@H](CC2CCCCC2)C(=O)N(C)CC(=O)N[C@@H](CCc2ccc(C(F)(F)F)c(Cl)c2)C(=O)N2CCC[C@H]2C(=O)NC2(CCCC2)C(=O)N(C)[C@@H](C(C)C)C(=O)N(C)[C@H](C(=O)N2CCCCC2)CC(=O)N1C [Compound 559] ([NMePra]I[NMeA][Aze][NMeCha][Sar][hPhe(3-Cl-4-CF3)]P[Ac5c][NMeV][NMeD]-Piperidide; lactam N-11)	1.7 nM
CC[C@H](C)[C@@H]1NC(=O)[C@H](CC(C)C)N(C)C(=O)C[C@@H](C(=O)N2CCCCC2)N(C)C(=O)[C@H](C2CCCC2)N(C)C(=O)C2(CCCC2)NC(=O)[C@@H]2CCCN2C(=O)[C@H](CCc2ccc(C(F)(F)F)c(F)c2)NC(=O)CN(C)C(=O)[C@H](CC2CCCCC2)N(C)C(=O)[C@@H]2CCN2C(=O)[C@H](C)N(C)C1=O [Compound 563] ([NMeL]I[NMeA][Aze][NMeCha][Sar][hPhe(3-F,4-CF3)]P[Ac5c][NMeGly(cPent)][NMeD]-Piperidide; lactam N-11)	1.1 nM

Source: patent publication US20240148821A1, “PHARMACEUTICAL USE OF CYCLIC PEPTIDE COMPOUND” (CHUGAI SEIYAKU KABUSHIKI KAISHA, priority 2021, published 2024)
